According to patent US6413764B1, “Human metabotropic glutamate receptors, nucleic acids encoding same and uses thereof” (Merck & Co., Inc., priority 1993, dated 2002):

What was measured:
human mGluR5a receptor [1] = target: T1, human mGluR5a receptor (Homo sapiens, UniProt P41594); experiment: Two-electrode voltage clamp of Xenopus oocytes injected with mGluR5a3 transcripts; format: cell-based; conditions: for transmembrane currents after application of the compound: oocytes injected with mGluR5a3 transcripts, 0.001-0.1 μM quisqualate, 0.1-10 μM glutamate, 0.1-300 μM 1S,3R-ACPD, clamped at −80 to −100 mV; for dose-response of current magnitude: varying amounts of each compound, mGluR5a3 transcripts
Protocol: Xenopus oocytes were injected with in vitro transcripts prepared from constructs containing DNA encoding human metabotropic receptors. Electrophysiological measurements of the oocyte transmembrane currents were made using the two-electrode voltage clamp technique (see e.g., Stuhmer (1992) Meth. Enzymol. 207:319-339).
Recombinant capped transcripts of metabotropic receptor cDNAs contained in construct mGluR5a3 were synthesized from linearized plasmids using the Megascript Kit (Cat. #1334, Ambion, Inc., Austin, Tex.). The mass of each synthesized transcript was determined by UV absorbance and the integrity of each transcript was determined by electrophoresis through an agarose gel.
Xenopus oocytes were injected with 10-50 ng of metabotropic receptor transcripts per oocyte. The preparation and injection of oocytes were carried out as described by Dascal [(1987) Crit; Rev. Biochem. 22:317-387]. Two-to-six days following mRNA injection, the oocytes were examined using the two-electrode voltage clamp technique. The cells were bathed in Ringer's solution (115 mM NaCl, 2.5 mM KCl, 1.8 mM CaCl2, 10 mM HEPES, pH 7.3), and the membrane potential was clamped at −80 to −100 mV. Drugs were applied by pipetting 60 μl aliquots of drug-containing solution directly into the bath. Data were sampled at 2-5 Hz with a Labmaster data acquisition board in PC-386 using AXOTAPE version 1.2 (Axon Instruments, Foster City, Calif.) software. Data were exported to a laser printer or plotted using Sigmaplot version 5.0.
Metabotropic receptor-modulating compounds, i.e., 0.001-0.1 μM quisqualate, 0.1-10 μM glutamate and 0.1-300 μM 1S,3R-ACPD (1-amino-cyclopentyl-1,3-dicarboxylic acid), were applied to the bath and the transmembrane currents were recorded.

[2] = system: untransfected HEK 293 cells; experiment: Fluorescence imaging assay (fura-2), untransfected control cells; format: cell-based, human; conditions: 100 μM, on average
Protocol: (§1) HEK 293 cells that had been transiently transfected with mGluR5a3 and untransfected HEK 293 cells (control) were analyzed by digital video imaging in order to visualize metabotropic receptor-mediated changes in intracellular Ca^++ concentration. Transfectants (4×10^5 cells per 35-mm culture dish with glass-insert bottom) were loaded with fura-2 by exposing the cells to 1 μM fura-2 (acetoxymethyl ester) for 25 min at room temperature in the dark. The cells were then washed three times with DMEM and four times with Ringer's (160 mM NaCl, 5 mM KCl, 2 mM CaCl2, 1 mM MgCl2, 11 mM glucose, 5 mM HEPES, pH 7.3) solution.
(§2) The transfectants and untransfected cells were then placed on the stage of an Axiovert 100 TV inverted microscope (Zeiss, Oberkochren, Germany) equipped with a 150 W xenon lamp as the UV light source. […]
(§3) The uncalibrated fura-2 ratios were used to generate pseudocolor images with purple corresponding to resting intracellular Ca^++ concentration (˜100 nM) and red to high intracellular Ca^++ concentration (˜1 μM). For quantitative analysis, the average ratio value in a 12-by-12 pixel region over each cell was calculated by the software for each ratio image in an experiment and imported into a spreadsheet for further analysis and graphing.

human mGluR5a receptor [3] = target: T1, human mGluR5a receptor; experiment: Fluorescence imaging assay (fura-2) in HEK 293 cells transiently transfected with mGluR5a3; format: cell-based; set-up: expressed in transfected cells; host or cells: HEK 293 cells, transient CaPO4 transfection; conditions: 100 μM; HEK 293 transiently transfected with mGluR5a3
Protocol: as §1, §2, §3

T1 sequence (P41594 21-1180 isoform P41594-2 limits assumed): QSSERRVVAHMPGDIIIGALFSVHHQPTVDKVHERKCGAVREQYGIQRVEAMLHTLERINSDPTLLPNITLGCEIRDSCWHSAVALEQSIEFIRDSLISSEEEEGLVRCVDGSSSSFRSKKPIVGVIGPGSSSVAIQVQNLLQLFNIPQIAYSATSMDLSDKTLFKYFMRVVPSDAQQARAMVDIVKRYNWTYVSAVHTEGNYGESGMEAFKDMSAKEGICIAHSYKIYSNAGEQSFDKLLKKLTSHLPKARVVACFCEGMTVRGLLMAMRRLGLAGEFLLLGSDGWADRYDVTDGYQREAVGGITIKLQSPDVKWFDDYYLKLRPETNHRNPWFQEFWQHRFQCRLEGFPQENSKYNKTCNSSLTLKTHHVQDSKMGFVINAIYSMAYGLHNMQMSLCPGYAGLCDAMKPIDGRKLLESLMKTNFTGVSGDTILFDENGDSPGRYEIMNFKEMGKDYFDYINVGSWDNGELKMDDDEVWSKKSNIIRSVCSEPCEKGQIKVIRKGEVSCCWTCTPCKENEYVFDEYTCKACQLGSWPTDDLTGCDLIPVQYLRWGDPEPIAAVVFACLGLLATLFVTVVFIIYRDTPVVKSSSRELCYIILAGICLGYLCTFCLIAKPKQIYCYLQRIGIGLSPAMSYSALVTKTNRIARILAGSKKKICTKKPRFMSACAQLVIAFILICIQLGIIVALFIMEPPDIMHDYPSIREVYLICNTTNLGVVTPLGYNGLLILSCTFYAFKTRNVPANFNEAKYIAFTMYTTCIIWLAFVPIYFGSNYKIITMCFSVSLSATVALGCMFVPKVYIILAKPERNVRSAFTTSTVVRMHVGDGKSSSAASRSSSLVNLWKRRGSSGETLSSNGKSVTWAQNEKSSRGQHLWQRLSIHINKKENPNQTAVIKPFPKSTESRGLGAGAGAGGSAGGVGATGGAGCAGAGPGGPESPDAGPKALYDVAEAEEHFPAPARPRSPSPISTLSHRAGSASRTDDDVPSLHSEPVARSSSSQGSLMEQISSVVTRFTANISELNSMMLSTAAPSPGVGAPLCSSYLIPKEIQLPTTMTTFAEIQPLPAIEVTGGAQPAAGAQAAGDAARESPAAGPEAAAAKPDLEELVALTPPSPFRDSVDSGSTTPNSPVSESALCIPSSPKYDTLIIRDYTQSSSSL

| SMILES | transmembrane currents after application of the compound (human mGluR5a receptor [1]) | dose-response of current magnitude (human mGluR5a receptor [1]) | intracellular Ca++ concentration change [2] | transfected cells whose intracellular Ca++ concentration increased (human mGluR5a receptor [3]) [%] |
| --- | --- | --- | --- | --- |
| N[C@@H](Cn1oc(=O)[nH]c1=O)C(=O)O [quisqualate] | Significant currents were detected | current magnitude increased with increasing concentration | did not change | 26.7±22.3 |
| NC1(C(=O)O)CCC(C(=O)O)C1 (stereo not drawn) [1S,3R-ACPD, 1-amino-cyclopentyl-1,3-dicarboxylic acid] | Significant currents were detected | current magnitude increased with increasing concentration | – | – |
| N[C@@H](CCC(=O)O)C(=O)O [glutamate] | Significant currents were detected | current magnitude increased with increasing concentration | – | – |
